Series [1] concerns Phytophthora infestans. Format: in vivo. The note with it: tomato young plants, preventive spray, 100 ppm of active ingredient, evaluated 7 days after inoculation; 0% = untreated control, 100% = no disease.
The nature of series [2]: Measurement of logP by HPLC on reversed phase columns (EEC directive 79/831 Annex V.A8). Format: physicochemical. The note with it: pH 2.7, 0.1% formic acid in water / acetonitrile gradient.

Compound `CCC(C)=NOC(=O)Nc1cccc(CO/N=C(/c2ccccc2)c2nnnn2C)n1` [Example 1, [(butan-2-ylideneamino)oxy]({6-[({[(Z)-(1-methyl-1H-tetrazol-5-yl)(phenyl)methylene]amino}oxy)methyl]pyridin-2-yl}amino)methanone] came in with an Eff. % in series [1] of 95%. The chromatographic logP in series [2] (reversed phase HPLC column, read-out: LogP (HCOOH)) was 3.27.
In series [1], `CCCCC(C)=NOC(=O)Nc1cccc(CON=C(c2ccccc2)c2nnnn2C)n1` [Example 2] returned an Eff. % of 92%. The “LogP (HCOOH)” value in series [2] is listed as 3.96.
Regarding `CC(=NOC(=O)Nc1cccc(CON=C(c2ccccc2)c2nnnn2C)n1)c1ccccc1` [Example 3], the Eff. % in series [1] is given as 94%.
On the same count and under the same terms, the figure for `CCC(=NOC(=O)Nc1cccc(CON=C(c2ccccc2)c2nnnn2C)n1)c1ccccc1` [Example 4] is 97%; for `CC(=NOC(=O)Nc1cccc(CON=C(c2ccccc2)c2nnnn2C)n1)C(C)(C)C` [Example 7] it is 95%.
On the same count and under the same terms, the figure for `Cn1nnnc1C(=NOCc1cccc(NC(=O)ON=C(CCl)C(C)(C)C)n1)c1ccccc1` [Example 8] is 93%.
Consider `CCCCCCC(C)=NOC(=O)Nc1cccc(CON=C(c2ccccc2)c2nnnn2C)n1` [Example 11], for which the Eff. % in series [1] was 90%. Moreover, the “LogP (HCOOH)” value in series [2] is 4.79.
As for `CC(=NOC(=O)Nc1cccc(CON=C(c2ccccc2)c2nnnn2C)n1)C(C)C` [Example 13], the Eff. % in series [1] was 95%.
Same read-out and setting: under `CC(C)=NOC(=O)Nc1cccc(CON=C(c2ccccc2)c2nnnn2C)n1` [Example 14] stands 92%; under `CC(=NOC(=O)Nc1cccc(CON=C(c2ccccc2)c2nnnn2C)n1)C1CC1` [Example 18], 93%.
`CCCCCC(C)=NOC(=O)Nc1cccc(CON=C(c2ccccc2)c2nnnn2C)n1` [Example 20]: the Eff. % in series [1] worked out at 95%. The “LogP (HCOOH)” value in series [2] is recorded as 4.39.

Values taken from patent US20130289077A1 (priority 2010, published 2013).
